Data: patent EP4653444A1, “FUSED TRICYCLIC COMPOUND AS KINASE INHIBITOR” (Hangzhou Innogate Pharma Co., Ltd., priority 2023, dated 2024)

Experiments:
in vivo = conditions: rat, po, 3 mg/kg
Procedure: Pharmacokinetic parameters were calculated by statistical moment method using WinNonLin 8.0 software, mainly including Tmax, T1/2, Cmax and AUC0-24h.
Animals: Three male SD rats weighing 200-220 g were used. After purchase, they were housed in the laboratory animal center for 2 days before experiment. […] Blood samples were collected at scheduled time points after oral gavage.
Vehicle: 0.4% ethanol + 0.4% Tween 80 + 99.2% (0.5% methylcellulose M450). Preparation of oral gavage solution: The compound was accurately weighed and dissolved in vehicle by ultrasonication for 5 min at room temperature to prepare 0.3 mg/mL drug solution.
Single compound administration was also used to study pharmacokinetics in rats.
Blood sample collection: After oral gavage, blood samples were collected from orbital sinus at 0.25, 0.5, 1, 2, 4, 8, 10 and 24 h. 50 µL plasma was mixed with 200 µL acetonitrile (containing 2 ng/mL verapamil as internal standard). The mixture was vortexed for 3 min, then centrifuged at 20000 rcf for 10 min at 4 °C. The supernatant was analyzed by LC-MS/MS.
Standard curves were established by accurately weighing and preparing compounds at different concentrations for mass spectrometric quantification. Compound concentrations in plasma samples were determined based on standard curves to obtain concentration-time profiles. All measurement data were collected and processed by relevant software. Pharmacokinetic parameters (including Tmax, T1/2, Cmax and AUC0-24h) were calculated by statistical moment method.

FLT3 = target: T1, FLT3 (Homo sapiens, UniProt P36888); experiment: FLT3 kinase activity inhibition assay (Mobility shift assay); assay type: biochemical
T1 sequence (P36888 27-993): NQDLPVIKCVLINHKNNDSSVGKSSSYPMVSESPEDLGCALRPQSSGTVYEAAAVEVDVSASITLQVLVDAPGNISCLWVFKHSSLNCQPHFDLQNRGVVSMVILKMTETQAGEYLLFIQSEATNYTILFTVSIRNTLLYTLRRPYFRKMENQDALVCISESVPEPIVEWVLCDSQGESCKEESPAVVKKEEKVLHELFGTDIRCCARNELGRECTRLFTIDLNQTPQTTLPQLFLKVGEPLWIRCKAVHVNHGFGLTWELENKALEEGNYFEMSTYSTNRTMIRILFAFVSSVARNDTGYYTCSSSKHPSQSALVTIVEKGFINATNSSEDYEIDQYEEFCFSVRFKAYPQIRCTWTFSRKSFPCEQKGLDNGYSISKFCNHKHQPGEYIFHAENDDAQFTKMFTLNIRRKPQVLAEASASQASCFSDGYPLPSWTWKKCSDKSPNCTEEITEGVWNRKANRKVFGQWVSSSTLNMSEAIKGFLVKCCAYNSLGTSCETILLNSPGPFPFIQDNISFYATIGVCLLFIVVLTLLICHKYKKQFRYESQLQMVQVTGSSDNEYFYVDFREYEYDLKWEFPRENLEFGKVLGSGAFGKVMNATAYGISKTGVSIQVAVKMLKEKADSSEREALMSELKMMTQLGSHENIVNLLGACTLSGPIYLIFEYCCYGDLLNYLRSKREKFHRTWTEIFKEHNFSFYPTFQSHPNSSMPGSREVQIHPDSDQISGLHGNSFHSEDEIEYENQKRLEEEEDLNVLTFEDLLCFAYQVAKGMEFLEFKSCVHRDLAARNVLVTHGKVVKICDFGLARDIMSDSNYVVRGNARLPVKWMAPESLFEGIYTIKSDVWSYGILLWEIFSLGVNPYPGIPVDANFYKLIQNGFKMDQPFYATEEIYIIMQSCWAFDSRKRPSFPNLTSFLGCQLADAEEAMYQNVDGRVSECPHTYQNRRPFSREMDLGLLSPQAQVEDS
Procedure: Testing compound inhibitory activity against FLT3 and AXL kinases using Mobility shift assay. Compounds were dissolved in 100% DMSO to prepare 10 mM stock solutions. Prepare 1× Kinase Buffer. Test compounds were serially diluted in 5-fold gradients, and 250 nL of 100× final concentration compounds were transferred to destination plate 3573 using an Echo 550 liquid handler. A 2.5× final concentration kinase solution was prepared in 1× Kinase Buffer. Then, 10 µL of the 2.5× kinase solution was added to both compound wells and positive control wells, while 10 µL of 1× Kinase Buffer was added to negative control wells. The plate was centrifuged at 1000 rpm for 30 seconds, mixed by orbital shaking, and incubated at room temperature for 10 minutes. A 5/3× final concentration mixture of ATP and Kinase Substrate 25 was prepared in 1× Kinase Buffer. The reaction was initiated by adding 15 µL of the 5/3× ATP/substrate mixture. The 384-well plate was centrifuged at 1000 rpm for 30 seconds, mixed by shaking, and incubated at room temperature for 120 minutes. The kinase reaction was terminated by adding 30 µL stop solution, followed by centrifugation at 1000 rpm for 30 seconds and mixing. Conversion rates were measured using a Caliper EZ Reader. %Inhibition = (Conversion%_max - Conversion%_sample)/(Conversion%_max - Conversion%_min) × 100. Where: Conversion%_sample: Conversion rate reading of test samples; Conversion%_min: Mean value of negative control wells (representing conversion rate without enzyme activity); Conversion%_max: Mean value of positive control wells (representing conversion rate without compound inhibition). Dose-response curves were plotted with log(concentration) as the X-axis and percentage inhibition as the Y-axis. Curve fitting was performed using GraphPad Prism 5 software with the "log(inhibitor) vs. response - Variable slope" model to derive IC50 values for each compound's enzyme inhibitory activity. The fitting formula was: Y = Bottom + (Top - Bottom)/(1 + 10^((LogIC50 - X) × HillSlope)).

HPK1 kinase = HPK1 kinase (Homo sapiens, UniProt Q92918); experiment: HPK1 kinase activity inhibition assay (Mobility shift assay); assay type: biochemical
HPK1 kinase, sequence (Q92918 whole entry): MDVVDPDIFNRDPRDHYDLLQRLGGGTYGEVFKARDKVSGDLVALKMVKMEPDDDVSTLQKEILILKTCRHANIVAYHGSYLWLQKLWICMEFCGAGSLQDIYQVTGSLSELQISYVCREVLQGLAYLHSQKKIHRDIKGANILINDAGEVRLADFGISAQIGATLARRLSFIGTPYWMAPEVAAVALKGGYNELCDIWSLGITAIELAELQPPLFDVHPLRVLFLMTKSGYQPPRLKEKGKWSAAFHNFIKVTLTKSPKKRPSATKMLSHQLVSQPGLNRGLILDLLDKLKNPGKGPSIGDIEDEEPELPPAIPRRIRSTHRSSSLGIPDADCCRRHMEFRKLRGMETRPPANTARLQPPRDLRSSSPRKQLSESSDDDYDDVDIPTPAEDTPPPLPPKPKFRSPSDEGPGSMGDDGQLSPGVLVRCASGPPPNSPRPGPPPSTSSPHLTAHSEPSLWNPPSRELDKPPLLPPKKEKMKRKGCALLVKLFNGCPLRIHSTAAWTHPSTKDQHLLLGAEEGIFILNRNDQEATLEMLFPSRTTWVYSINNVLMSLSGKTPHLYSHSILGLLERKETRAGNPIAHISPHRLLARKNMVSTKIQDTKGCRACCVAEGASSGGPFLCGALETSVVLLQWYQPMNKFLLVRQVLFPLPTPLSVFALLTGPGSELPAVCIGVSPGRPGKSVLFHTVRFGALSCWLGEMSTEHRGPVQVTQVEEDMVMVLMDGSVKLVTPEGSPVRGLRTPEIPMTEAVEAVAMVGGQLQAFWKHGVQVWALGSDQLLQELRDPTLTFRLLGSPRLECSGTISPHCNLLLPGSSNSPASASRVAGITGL
Procedure: Measure compound inhibitory activity against HPK1 kinase using Mobility shift assay. Compounds were dissolved in 100% DMSO to prepare 10 mM stock solutions. 1× Kinase buffer was prepared. Test compounds were serially diluted in 5-fold gradients, and 250 nL of 100× final concentration compounds were transferred to destination plate 3573 using an Echo 550 liquid handler. A 2.5× final concentration kinase solution was prepared in 1× Kinase Buffer. 10 µL of the 2.5× kinase solution was added to both compound wells and positive control wells, while 10 µL of 1× Kinase buffer was added to negative control wells. The plate was centrifuged at 1000 rpm for 30 seconds, mixed by orbital shaking, and incubated at room temperature for 10 minutes. A 5/3× final concentration mixture of ATP and Kinase substrate 25 was prepared in 1× Kinase buffer. 15 µL of the 5/3× ATP/substrate mixture was added to initiate the reaction. The 384-well plate was centrifuged at 1000 rpm for 30 seconds, mixed by shaking, and incubated at room temperature for 120 minutes. The kinase reaction was terminated by adding 30 µL stop solution, followed by centrifugation at 1000 rpm for 30 seconds and mixing. Conversion rates were measured using a Caliper EZ Reader. The inhibition percentage was calculated as: %Inhibition = (Conversion%_max - Conversion%_sample)/(Conversion%_max - Conversion%_min) × 100. Where Conversion%_sample: Conversion rate reading of test samples; Conversion%_min: Mean value of negative control wells (representing conversion rate without enzyme activity); Conversion%_max: Mean value of positive control wells (representing conversion rate without compound inhibition). Dose-response curves were plotted with log(concentration) as the X-axis and percentage inhibition as the Y-axis. Curve fitting was performed using GraphPad Prism 5 software with the "log(inhibitor) vs. response - Variable slope" model to derive IC50 values for each compound's enzyme inhibitory activity. The fitting formula was: Y = Bottom + (Top - Bottom)/(1 + 10^((LogIC50 - X) × HillSlope)).

FAK kinase = FAK kinase (Homo sapiens, UniProt Q05397); experiment: FAK kinase activity inhibition assay, method A (HTRF) and method B (Lantha screen); assay type: biochemical
FAK kinase, sequence (Q05397 whole entry): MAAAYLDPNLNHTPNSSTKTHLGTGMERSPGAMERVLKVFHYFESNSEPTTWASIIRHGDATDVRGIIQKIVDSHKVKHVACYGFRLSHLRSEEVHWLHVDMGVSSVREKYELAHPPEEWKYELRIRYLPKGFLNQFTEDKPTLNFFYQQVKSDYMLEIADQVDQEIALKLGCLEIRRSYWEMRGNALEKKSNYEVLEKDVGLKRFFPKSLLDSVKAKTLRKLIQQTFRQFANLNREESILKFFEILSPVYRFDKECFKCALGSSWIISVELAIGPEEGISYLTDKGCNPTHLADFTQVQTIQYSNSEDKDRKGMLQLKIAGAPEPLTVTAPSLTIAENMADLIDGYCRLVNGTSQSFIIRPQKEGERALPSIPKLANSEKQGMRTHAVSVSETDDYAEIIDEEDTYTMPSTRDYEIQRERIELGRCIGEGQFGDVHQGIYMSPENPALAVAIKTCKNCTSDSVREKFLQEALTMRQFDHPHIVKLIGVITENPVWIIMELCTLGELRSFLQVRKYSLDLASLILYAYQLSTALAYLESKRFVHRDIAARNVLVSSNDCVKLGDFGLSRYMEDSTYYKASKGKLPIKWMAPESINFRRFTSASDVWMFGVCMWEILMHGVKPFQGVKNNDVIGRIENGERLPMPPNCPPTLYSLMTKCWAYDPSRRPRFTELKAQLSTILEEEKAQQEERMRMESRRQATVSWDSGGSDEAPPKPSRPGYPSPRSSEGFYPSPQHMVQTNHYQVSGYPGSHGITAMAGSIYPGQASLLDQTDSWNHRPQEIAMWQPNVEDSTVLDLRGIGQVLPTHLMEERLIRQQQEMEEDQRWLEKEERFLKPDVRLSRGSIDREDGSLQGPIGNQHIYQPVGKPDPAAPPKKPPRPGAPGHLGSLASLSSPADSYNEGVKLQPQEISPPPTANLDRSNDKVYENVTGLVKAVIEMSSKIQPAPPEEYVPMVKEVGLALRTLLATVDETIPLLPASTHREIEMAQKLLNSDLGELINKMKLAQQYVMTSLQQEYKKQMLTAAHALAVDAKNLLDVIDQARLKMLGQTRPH
Procedure: The HTRF method was used to evaluate the inhibitory activity of the compounds against FAK kinase. […]. The reaction conditions were: FAK kinase at 0.1 ng/µL; ATP 10 µM; substrate concentration 1 µM. Compounds were serially diluted in DMSO and shaken on a shaker for 20 minutes. Prepare 2× kinase using 1× reaction buffer. Transfer 25 nL compound to a 384-well plate using Echo 655. Add 2.5 µL kinase per well. Seal the plate with sealing film, centrifuge at 1000 rpm for 60 seconds, and incubate at 25°C for 12 hours. Prepare 2× ATP/substrate mix using 1× enzyme reaction buffer and add 2.5 µL 2× ATP/substrate mix per well. Seal the plate with sealing film, centrifuge at 1000 rpm for 60 seconds, and incubate at 25°C for 50 minutes. Prepare 2×XL665 & antibody solution using HTRF detection buffer, and add 5 µL per well. Incubate at 25°C for 60 minutes. Read fluorescence at 620 nm (Cryptate) and 665 nm (XL665). Calculate the ratio per well (Ratio_665/620 nm). % Inhibition = 100% - [(Compound Ratio - Positive Control Ratio)/ (Negative Control Ratio - Positive Control Ratio)] × 100%. IC50 values (half-maximal inhibitory concentration) were calculated by nonlinear regression using GraphPad Prism 7.0. Y = Bottom + (Top - Bottom)/ (1 + 10^ ((LogIC50 - X) × Hill Slope)), where X is the log of compound concentration and Y is the % inhibition.
The Lantha screen assay was used to evaluate the FAK kinase inhibitory activity. Compounds were dissolved in 100% DMSO at 10 mM stock concentration. Prepare 1× kinase buffer (25 mM HEPES, pH 7.5, 0.01 mM Triton, 0.5 mM EGTA, 0.01% Brij-35). Dilute compounds in a gradient, and transfer 5 µL compound into the reaction plate. Prepare 2× kinase solution with 1× Kinase buffer. Add 5 µL kinase solution to compound and positive control wells, and 5 µL 1× Kinase buffer to negative control wells. Mix reaction plate by shaking. Prepare 4× ATP/Fluorescein-polyGT substrate mix with 1× Kinase buffer. Add 2.5 µL substrate solution to initiate the reaction. Shake and incubate at room temperature for 30 minutes. Prepare 2× detection reagent (2 nM antibody, 10 mM EDTA) and add 10 µL per well to stop the reaction. Briefly centrifuge, mix, and incubate for 60 minutes. Read fluorescence at 340 nm excitation and 520 nm/495 nm emission using EnVision. Collect data and calculate 520 nm/495 nm ratio. Calculate the inhibition percentage using the formula: % Inhibition = (Max - Sample Ratio)/(Max - Min) × 100, where min is the mean of negative control wells (no enzyme activity), and max is the mean of positive control wells (DMSO-inhibited conversion rate).Use XLFit Excel add-in version 5.4.0.8 to determine the IC50 values of each compound against the enzyme activity: Y = Bottom + (Top - Bottom)/(1 + (IC50/X)^HillSlope).

AUC(0-t) at 24 h (in vivo) | Cmax (in vivo) | Tmax (in vivo) | half-life (in vivo) | SMILES | IC50 (FLT3) | IC50 (HPK1 kinase) | IC50 (FAK kinase)
1460 ng·h/mL | 487 ng/mL | 0.5 h | 1.76 h | CCc1cc2c(cc1Nc1ncc(C(F)(F)F)c(NCCCN3CCOCCC3=O)n1)OC[C@H]1CN(C3COC3)CCN21 [Compound A12R] | – | – | –
– | – | – | – | CNC(=O)c1ccccc1Nc1cc(Nc2cc3c(cc2OC)N2CCN(C4CCOCC4)C[C@@H]2CO3)ncc1C(F)(F)F [Compound D1R] | < 30 nM | < 30 nM | < 3 nM
